Source: US9884832B2 (priority 2011, dated 2018)

Biological target: AM2 S31 (wild-type serine at position 31 in the M2 protein), influenza virus A/Udorn/72 (Influenza A virus, UniProt P0DOF5)
Test: cell-based
Settings: 100 uM; Xenopus oocytes; activity range class; read-out: S31 OOcyte Inhibition at 100 uM (%)

Chain of AM2 S31 (wild-type serine at position 31 in the M2 protein), influenza virus A/Udorn/72 (P0DOF5 whole entry, looked up): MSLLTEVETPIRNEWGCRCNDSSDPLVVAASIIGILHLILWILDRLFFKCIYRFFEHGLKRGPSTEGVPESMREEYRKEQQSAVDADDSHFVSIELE

`c1c[nH]c(CNC23CC4CC(CC(C4)C2)C3)c1` [Example 72a, Adamantan-1-yl-(1H-pyrrol-2-ylmethyl)-amine] and `Brc1ccc(CNC23CC4CC(CC(C4)C2)C3)[nH]1` [Example 88a, Adamantan-1-yl-(5-bromo-1H-pyrrol-2-ylmethyl)-amine] fall in the same range of inhibition at 100 µM: 31 to 95% for the first, 31 to 95% for the second.

First: c1nc(CNC23CC4CC(CC(C4)C2)C3)no1 [Example 73a, Adamantan-1-yl-[1,2,4]oxadiazol-3-ylmethyl-amine]
Second: Brc1cnc(CNC23CC4CC(CC(C4)C2)C3)s1 [Example 86a, Adamantan-1-yl-(5-bromo-thiazol-2-ylmethyl)-amine]
The inhibition at 100 µM of the first is higher: 31 to 95% for the first, 0 to 30% for the second.

`COc1ccsc1CNC12CC3CC(CC(C3)C1)C2` [Example 74a, Adamantan-1-yl-(3-methoxy-thiophen-2-ylmethyl)-amine] and `Cc1ccsc1CNC12CC3CC(CC(C3)C1)C2` [Example 76a, N-((3-methylthiophen-2-yl)methyl)adamantan-1-amine] fall in the same range of inhibition at 100 µM: 31 to 95% for the first, 31 to 95% for the second.

`COc1ccc(CNC23CC4CC(CC(C4)C2)C3)s1` [Example 75a, N-((5-methoxythiophen-2-yl)methyl)adamantan-1-amine] and `Cc1ccc(CNC23CC4CC(CC(C4)C2)C3)s1` [Example 78a, N-((5-methylthiophen-2-yl)methyl)adamantan-1-amine] fall in the same range of inhibition at 100 µM: 31 to 95% for the first, 31 to 95% for the second.

`Cc1cc(CNC23CC4CC(CC(C4)C2)C3)sc1Br` [Example 77a, N-((5-bromo-4-methylthiophen-2-yl)methyl)adamantan-1-amine] and `Brc1ccc(CNC23CC4CC(CC(C4)C2)C3)s1` [Example 81a, N-((5-Bromothiophen-2-yl)methyl)adamantan-1-amine] fall in the same range of inhibition at 100 µM: 31 to 95% for the first, 31 to 95% for the second.

`Clc1ccc(CNC23CC4CC(CC(C4)C2)C3)s1` [Example 79a, N-((5-chlorothiophen-2-yl)methyl)adamantan-1-amine] and `Ic1ccc(CNC23CC4CC(CC(C4)C2)C3)s1` [Example 91a, N-((5-Iodothiophen-2-yl)methyl)adamantan-1-amine] fall in the same range of inhibition at 100 µM: 31 to 95% for the first, 31 to 95% for the second.

`COc1cc(Cl)sc1CNC12CC3CC(CC(C3)C1)C2` [Example 80a] and `CSc1ccc(CNC23CC4CC(CC(C4)C2)C3)s1` [Example 90a] fall in the same range of inhibition at 100 µM: 31 to 95% for the first, 31 to 95% for the second.

`CC(NC12CC3CC(CC(C3)C1)C2)c1ccc(I)s1` (centres unmarked) [Example 82a, N-(1-(5-iodothiophen-2-yl)ethyl)adamantan-1-amine] and `Brc1ccc(CNC23CC4CC(CC(C4)C2)C3)o1` [Example 87a, Adamantan-1-yl-(5-bromo-furan-2-ylmethyl)-amine] fall in the same range of inhibition at 100 µM: 31 to 95% for the first, 31 to 95% for the second.

First: Brc1nc(CNC23CC4CC(CC(C4)C2)C3)cs1 [Example 83a, N-((2-bromothiazol-4-yl)methyl)adamantan-1-amine]
Second: CC(C)c1csc(CNC23CC4CC(CC(C4)C2)C3)n1 [Example 84a, N-((4-isopropylthiazol-2-yl)methyl)adamantan-1-amine]
The inhibition at 100 µM of the first is higher: 31 to 95% for the first, 0 to 30% for the second.

Compared with `CC(C)n1cc(CNC23CC4CC(CC(C4)C2)C3)cn1` [Example 85a, N-((1-isopropyl-1H-pyrazol-4-yl)methyl)adamantan-1-amine], `Brc1cnc(CNC23CC4CC(CC(C4)C2)C3)[nH]1` [Example 89a, Adamantan-1-yl-(5-bromo-1H-imidazol-2-ylmethyl)-amine] is higher in inhibition at 100 µM: 0 to 30% for the first, 31 to 95% for the second.

Same assay, conditions: Table 1; 100 uM; Xenopus oocytes, pH 5.5, -20 mV; read-out: S31 OOcyte Inhibition at 100 uM (%)

Compared with `c1ccc(CNC23CC4CC(CC(C4)C2)C3)nc1` [Example 72, Adamantan-1-yl-pyridin-2-ylmethyl-amine], `c1cc(CNC23CC4CC(CC(C4)C2)C3)ccn1` [Example 73, Adamantan-1-yl-pyridin-4-ylmethyl-amine] is higher in inhibition at 100 µM: 0 to 30% for the first, 31 to 95% for the second.

`[O-][n+]1ccc(CNC23CC4CC(CC(C4)C2)C3)cc1` [Example 74, Adamantan-1-yl-(1-oxy-pyridin-4-ylmethyl)-amine] and `OCc1ccc(CNC23CC4CC(CC(C4)C2)C3)o1` [Example 77, [5-(Adamantan-1-ylaminomethyl)-furan-2-yl]methanol] fall in the same range of inhibition at 100 µM: 0 to 30% for the first, 0 to 30% for the second.

`Nc1ncc(CNC23CC4CC(CC(C4)C2)C3)cn1` [Example 75, 5-(Adamantan-1-ylaminomethyl)-pyrimidin-2-ylamine] and `c1cc2sc(CNC34CC5CC(CC(C5)C3)C4)cc2s1` [Example 81, Adamantan-1-yl-thieno[3,2-b]thiophen-2-ylmethyl-amine] fall in the same range of inhibition at 100 µM: 31 to 95% for the first, 31 to 95% for the second.

Compared with `c1csc(-c2ccc(CNC34CC5CC(CC(C5)C3)C4)s2)c1` [Example 78, N-([2,2′-Bithiophen]-5-ylmethyl)adamantan-1-amine], `c1cc2cc(CNC34CC5CC(CC(C5)C3)C4)sc2s1` [Example 79, Adamantan-1-yl-thieno[2,3-b]thiophen-2-ylmethyl-amine] is higher in inhibition at 100 µM: 0 to 30% for the first, 31 to 95% for the second.

`c1cc2[nH]c(CNC34CC5CC(CC(C5)C3)C4)cc2s1` [Example 80, Adamantan-1-yl-(4H-thieno[3,2-b]pyrrol-5-ylmethyl)-amine] and `c1cc2cc(CNC34CC5CC(CC(C5)C3)C4)[nH]c2s1` [Example 82, Adamantan-1-yl-(6H-thieno[2,3-b]pyrrol-5-ylmethyl)-amine] fall in the same range of inhibition at 100 µM: 31 to 95% for the first, 31 to 95% for the second.

Compared with `c1cc2cc(CNC34CC5CC(CC(C5)C3)C4)sc2o1` [Example 83, Adamantan-1-yl-thieno[2,3-b]furan-5-ylmethyl-amine], `c1ccc2sc(CNC34CC5CC(CC(C5)C3)C4)cc2c1` [Example 88, Adamantan-1-yl-benzo[b]thiophen-2-ylmethyl-amine] is lower in inhibition at 100 µM: 31 to 95% for the first, 0 to 30% for the second.

First: c1c(CNC23CC4CC(CC(C4)C2)C3)sc2c1CSC2 [Example 84, Adamantan-1-yl-(4,6-dihydro-thieno[3,4-b]thiophen-2-ylmethyl)-amine]
Second: [O-][S+]1Cc2cc(CNC34CC5CC(CC(C5)C3)C4)sc2C1 (centres unmarked) [Example 85, Adamantan-1-yl-(5-oxo-5,6-dihydro-4H-5M-thieno[3,4-b]thiophen-2-ylmethyl)-amine]
The inhibition at 100 µM of the first is higher: 31 to 95% for the first, 0 to 30% for the second.

First: c1cn2cc(CNC34CC5CC(CC(C5)C3)C4)nc2s1 [Example 86, Adamantan-1-yl-imidazo[2,1-b]thiazol-6-ylmethyl-amine]
Second: Clc1c(CNC23CC4CC(CC(C4)C2)C3)nc2sccn12 [Example 87, Adamantan-1-yl-(5-chloro-imidazo[2,1-b]thiazol-6-ylmethyl)-amine]
The inhibition at 100 µM of the first is higher: 31 to 95% for the first, 0 to 30% for the second.

`c1ccc2oc(CNC34CC5CC(CC(C5)C3)C4)cc2c1` [Example 89, Adamantan-1-yl-benzofuran-2-ylmethyl-amine] and `c1ccc2sc(CNC34CC5CC(CC(C5)C3)C4)nc2c1` [Example 91, Adamantan-1-yl-benzothiazol-2-ylmethyl-amine] fall in the same range of inhibition at 100 µM: 0 to 30% for the first, 0 to 30% for the second.

For `c1cnc2sc(CNC34CC5CC(CC(C5)C3)C4)cc2c1` [Example 90, Adamantan-1-yl-thieno[2,3-b]pyridin-2-ylmethyl-amine], the inhibition at 100 µM was 0 to 30%.

Same assay, conditions: Table 3; 100 uM; Xenopus oocytes, pH 5.5, -20 mV; read-out: S31 OOcyte Inhibition at 100 uM (%)

`c1csc(-c2ccc(CNC34CC5CC(CC(C5)C3)C4)nn2)c1` [Example 71b, Adamantan-1-yl-(6-thiophen-2-yl-pyridazin-3-ylmethyl)-amine] and `C(#Cc1cccs1)CNC12CC3CC(CC(C3)C1)C2` [Example 88b] fall in the same range of inhibition at 100 µM: 0 to 30% for the first, 0 to 30% for the second.

`Clc1ccccc1-c1ccc(CNC23CC4CC(CC(C4)C2)C3)nc1` [Example 72b, Adamantan-1-yl-[5-(2-chloro-phenyl)-pyridin-2-ylmethyl]-amine] and `CSc1ccccc1-c1cnc(CNC23CC4CC(CC(C4)C2)C3)s1` [Example 76b, Adamantan-1-yl-[5-(2-methylsulfanyl-phenyl)-thiazol-2-ylmethyl]-amine] fall in the same range of inhibition at 100 µM: 0 to 30% for the first, 0 to 30% for the second.

`C[Si](C)(C)c1ccc(CNC23CC4CC(CC(C4)C2)C3)s1` [Example 75b, Adamantan-1-yl-(5-trimethylsilanyl-thiophen-2-ylmethyl)-amine] and `c1cc2nc(CNC34CC5CC(CC(C5)C3)C4)sc2s1` [Example 77b, Adamantan-1-yl-thieno[3,2-d]thiazol-2-ylmethyl-amine] fall in the same range of inhibition at 100 µM: 0 to 30% for the first, 0 to 30% for the second.

Compared with `c1cc2[nH]c(CNC34CC5CC(CC(C5)C3)C4)cc2o1` [Example 78b, Adamantan-1-yl-(4H-furo[3,2-b]pyrrol-5-ylmethyl)-amine], `COc1ccc2nc(CNC34CC5CC(CC(C5)C3)C4)[nH]c2c1` [Example 79b, Adamantan-1-yl-(6-methoxy-1H-benzoimidazol-2-ylmethyl)-amine] is lower in inhibition at 100 µM: 31 to 95% for the first, 0 to 30% for the second.

Compared with `c1cnc2[nH]c(CNC34CC5CC(CC(C5)C3)C4)nc2c1` [Example 82b, N-((3H-imidazo[4,5-b]pyridin-2-yl)methyl)adamantan-1-amine], `O=C(CNC12CC3CC(CC(C3)C1)C2)c1cccs1` [Example 87b, 2-(adamantan-1-ylamino)-1-(thiophen-2-yl)ethanone] is higher in inhibition at 100 µM: 0 to 30% for the first, 31 to 95% for the second.

`OC12CC3CC(C1)CC(NCc1noc(-c4ccccc4)n1)(C3)C2` [Example 84b, (1s,3r,5R,7S)-3-(((5-phenyl-1,2,4-oxadiazol-3-yl)methyl)amino)adamantan-1-61] and `OC12CC3CC(C1)CC(NCc1noc(C4CCCCC4)n1)(C3)C2` [Example 86b, (1s,3r,5R,7S)-3-(((5-cyclohexyl-1,2,4-oxadiazol-3-yl)methyl)amino)adamantan-1-ol] fall in the same range of inhibition at 100 µM: 0 to 30% for the first, 0 to 30% for the second.

`CC(C)c1cc(CNC23CC4CC(CC(O)(C4)C2)C3)no1` [Example 85b, (1s,3r,5R,7S)-3-(((5-isopropylisoxazol-3-yl)methyl)amino)adamantan-1-61] and `CSc1ccc(-c2cc(CNC34CC5CC(CC3C5)C4)no2)cc1` [Example 90b, (2R,3as,5S,6as)-N-((5-(4-(methylthio)phenyl)isoxazol-3-yl)methyl)octahydro-2,5-methanopentalen-3a-amine] fall in the same range of inhibition at 100 µM: 0 to 30% for the first, 0 to 30% for the second.
